Laboratory results as given in patent US20230143612A1 (Arbutus Biopharma Corporation, priority 2020, published 2023).

These molecules were tested against PD-L1 His protein / PD-1 Fc protein (Homo sapiens, UniProt Q9NZQ7) (assay: HTRF Assay (PD-1/PD-L1 interaction)). Details: PD-L1 His 6 nM, PD-1 Fc 6 nM.
Type: binding
How it was run: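 Compounds tested from 20 μM down to 0.001 μM (3-fold) against 6 nM PD-L1 His and 6 nM PD-1 Fc, 15 min room temperature incubation. Detection after 1 h at room temperature with Tb cryptate anti-6HIS and XL665 anti-human IgG reagents (mixture at 0.35 nM and 6.7 nM), HTRF signal.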

Sequence of PD-L1 His protein / PD-1 Fc protein (Q9NZQ7 19-238 limits assumed): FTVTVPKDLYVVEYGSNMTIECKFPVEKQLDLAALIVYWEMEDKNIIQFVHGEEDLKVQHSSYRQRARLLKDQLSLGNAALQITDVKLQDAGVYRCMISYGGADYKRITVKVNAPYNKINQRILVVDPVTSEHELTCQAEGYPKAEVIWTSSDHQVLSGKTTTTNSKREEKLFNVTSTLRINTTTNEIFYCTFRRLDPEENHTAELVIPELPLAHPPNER

Structure (SMILES)	IC50 [nM]
COc1nc(-c2cccc(-c3cccc(-c4cnc5sc(N6CCN(CCO)CC6)nn45)c3Cl)c2Cl)ccc1CNC[C@@H]1CCC(=O)N1 [Example 241, (S)-5-((((6-(2,2′-Dichloro-3′-(2-(4-(2-hydroxyethyl)piperazin-1-yl)imidazo[2,1-b][1,3,4]thiadiazol-5-yl)-[1,1′-biphenyl]-3-yl)-2-methoxypyridin-3-yl)methyl)amino)methyl)pyrrolidin-2-one]	900
COc1nc(-c2cccc(-c3cccc(-c4nnc5n4CCN(CCO)C5)c3Cl)c2Cl)ccc1CNC[C@@H]1CCC(=O)N1 [Example 242, (S)-5-((((6-(2,2′-Dichloro-3′-(7-(2-hydroxyethyl)-5,6,7,8-tetrahydro-[1,2,4]triazolo[4,3-a]pyrazin-3-yl)-[1,1′-biphenyl]-3-yl)-2-methoxypyridin-3-yl)methyl)amino)methyl)pyrrolidin-2-one]	1700
COc1nc(-c2cccc(-c3cccc(-c4ccn5c(=O)c(CNCC6(O)COC6)cnc5c4)c3Cl)c2Cl)ccc1CNC[C@@H]1CCC(=O)N1 [Example 243, (S)-8-(2,2′-dichloro-3′-(6-methoxy-5-((((5-oxopyrrolidin-2-yl)-methyl)-amino)-methyl)pyridin-2-yl)-[1,1′-biphenyl]-3-yl)-3-((((3-hydroxyoxetan-3-yl)methyl)-amino)-methyl)-4H-pyrido[1,2-a]-pyrimidin-4-one]	0.3
COc1nc(-c2cccc(-c3cccc(-c4ccn5c(=O)c(CNCC6(CO)COC6)cnc5c4)c3Cl)c2Cl)ccc1CNC[C@@H]1CCC(=O)N1 [Example 244, (S)-8-(2,2′-dichloro-3′-(6-methoxy-5-((((5-oxopyrrolidin-2-yl)methyl)amino)-methyl)-pyridin-2-yl)-[1,1′-biphenyl]-3-yl)-3-((((3-(hydroxymethyl)oxetan-3-yl)-methyl)-amino)-methyl)-4H-pyrido[1,2-a]pyrimidin-4-one]	0.6
COc1nc(-c2cccc(-c3cccc(-c4ccn5c(=O)c(CNCC6(C)COC6)cnc5c4)c3Cl)c2Cl)ccc1CNC[C@@H]1CCC(=O)N1 [Example 246, (S)-8-(2,2′-dichloro-3′-(6-methoxy-5-((((5-oxopyrrolidin-2-yl)-methyl)amino)-methyl)pyridin-2-yl)-[1,1′-biphenyl]-3-yl)-3-((((3-methyloxetan-3-yl)-methyl)-amino)-methyl)-4H-pyrido[1,2-a]pyrimidin-4-one]	6.7
COc1nc(-c2cccc(-c3cccc(-c4ccc5oc(CNC[C@@H]6CCC(=O)N6)nc5c4)c3Cl)c2Cl)ccc1CNC[C@@H]1CCC(=O)N1 [Example 247, (S)-5-((((6-(2,2′-Dichloro-3′-(2-(((((S)-5-oxopyrrolidin-2-yl)methyl)amino)methyl)benzo[d]oxazol-5-yl)-[1,1′-biphenyl]-3-yl)-2-methoxypyridin-3-yl)methyl)amino)methyl)pyrrolidin-2-one]	450
COc1nc(-c2cccc(-c3cccc(-c4ccc5nc(CNC[C@@H]6CCC(=O)N6)oc5c4)c3Cl)c2Cl)ccc1CNC[C@@H]1CCC(=O)N1 [Example 248, (S)-5-((((6-(2,2′-Dichloro-3′-(2-(((((S)-5-oxopyrrolidin-2-yl)methyl)amino)methyl)benzo[d]oxazol-6-yl)-[1,1′-biphenyl]-3-yl)-2-methoxypyridin-3-yl)methyl)amino)methyl)pyrrolidin-2-one]	250
COc1nc(-c2cccc(-c3cccc(-c4ccn5c(=O)c(CNCC67CCC(C6)C(=O)N7)cnc5c4)c3Cl)c2Cl)ccc1CNC[C@@H]1CCC(=O)N1 (stereo partly drawn) [Example 252, 8-[2-Chloro-3-[2-chloro-3-[6-methoxy-5-[[[(2S)-5-oxopyrrolidin-2-yl]methylamino]methyl]-2-pyridyl]phenyl]phenyl]-3-[[(3-oxo-2-azabicyclo[2.2.1]heptan-1-yl)methylamino]methyl]pyrido[1,2-a]pyrimidin-4-one]	4.7
COc1nc(-c2cccc(-c3cccc(-c4cc(C)n5c(=O)c(CN[C@H]6C[C@@](C)(O)C6)cnc5c4)c3Cl)c2Cl)ccc1CNC[C@@H]1CCC(=O)N1 [Example 254, 8-(2,2′-Dichloro-3′-(6-methoxy-5-(((((S)-5-oxopyrrolidin-2-yl)methyl)amino)methyl)pyridin-2-yl)-[1,1′-biphenyl]-3-yl)-3-((((1s,3s)-3-hydroxy-3-methylcyclobutyl)amino)methyl)-6-methyl-4H-pyrido[1,2-a]pyrimidin-4-one]	61
CNC(=O)C1CN(Cc2cnc3cc(-c4cccc(-c5cccc(-c6ccc(CNC[C@@H]7CCC(=O)N7)c(OC)n6)c5Cl)c4Cl)ccn3c2=O)C1 [Example 255, (S)-1-((8-(2,2′-Dichloro-3′-(6-methoxy-5-((((5-oxopyrrolidin-2-yl)methyl)amino)methyl)pyridin-2-yl)-[1,1′-biphenyl]-3-yl)-4-oxo-4H-pyrido[1,2-a]pyrimidin-3-yl)methyl)-N-methylazetidine-3-carboxamide]	0.1
COc1nc(-c2cccc(-c3cccc(-c4ccn5c(=O)c(CNC6CCN(C(C)=O)CC6)cnc5c4)c3Cl)c2Cl)ccc1CNC[C@@H]1CCC(=O)N1 [Example 256, 3-[[(1-Acetyl-4-piperidyl)amino]methyl]-8-[2-chloro-3-[2-chloro-3-[6-methoxy-5-[[[(2S)-5-oxopyrrolidin-2-yl]methylamino]methyl]-2-pyridyl]phenyl]phenyl]pyrido[1,2-a]pyrimidin-4-one]	0.1
CNC(=O)[C@H]1CCN(Cc2cnc3cc(-c4cccc(-c5cccc(-c6ccc(CNC[C@@H]7CCC(=O)N7)c(OC)n6)c5Cl)c4Cl)ccn3c2=O)C1 [Example 257, (S)-1-((8-(2,2′-Dichloro-3′-(6-methoxy-5-(((((S)-5-oxopyrrolidin-2-yl)methyl)amino)methyl)pyridin-2-yl)-[1,1′-biphenyl]-3-yl)-4-oxo-4H-pyrido[1,2-a]pyrimidin-3-yl)methyl)-N-methylpyrrolidine-3-carboxamide]	1.9
COc1nc(-c2cccc(-c3cccc(-c4cc5ncc(CNC[C@@H]6CCC(=O)N6)cc5cn4)c3Cl)c2Cl)ccc1CNC[C@@H]1CCC(=O)N1 [Example 258, (S)-5-((((6-(2,2′-Dichloro-3′-(3-(((((S)-5-oxopyrrolidin-2-yl)methyl)amino)methyl)-1,6-naphthyridin-7-yl)-[1,1′-biphenyl]-3-yl)-2-methoxypyridin-3-yl)methyl)amino)methyl) pyrrolidin-2-one]	0.1
COc1nc(-c2cccc(-c3cccc(-c4ccn5c(=O)c(CN[C@@H](C)C(N)=O)cnc5c4)c3Cl)c2Cl)ccc1CNC[C@@H]1CCC(=O)N1 [Example 260, (2S)-2-[[8-[2-Chloro-3-[2-chloro-3-[6-methoxy-5-[[[(2S)-5-oxopyrrolidin-2-yl]methylamino]methyl]-2-pyridyl]phenyl]phenyl]-4-oxo-pyrido[1,2-a]pyrimidin-3-yl]methylamino]propenamide]	0.1
O=C1CC[C@@H](CNCc2cnc3cc(-c4cccc(-c5cccc(-c6ccc7c(n6)OCCNC7)c5Cl)c4Cl)ccn3c2=O)N1 [Example 261, (S)-8-(2,2′-Dichloro-3′-(2,3,4,5-tetrahydropyrido[3,2-f][1,4]oxazepin-8-yl)-[1,1′-biphenyl]-3-yl)-3-((((5-oxopyrrolidin-2-yl)methyl)amino)methyl)-4H-pyrido[1,2-a]pyrimidin-4-one]	250
COc1nc(-c2cccc(-c3cccc(-c4ccn5c(=O)c(CNC[C@H](C)O)c(OC)nc5c4)c3Cl)c2Cl)ccc1CNC[C@@H]1CCC(=O)N1 [Example 262]	6.1
CNC(=O)[C@H](C)N(C)Cc1cnc2cc(-c3cccc(-c4cccc(-c5ccc(CNC[C@@H]6CCC(=O)N6)c(OC)n5)c4Cl)c3Cl)ccn2c1=O [Example 263, (S)-2-(((8-(2,2′-dichloro-3′-(6-methoxy-5-(((((S)-5-oxopyrrolidin-2-yl)methyl)amino)methyl)pyridin-2-yl)-[1,1′-biphenyl]-3-yl)-4-oxo-4H-pyrido[1,2-a]pyrimidin-3-yl)methyl)(methyl)amino)-N-methylpropanamide]	0.6
COc1nc(-c2cccc(-c3cccc(-c4ccn5c(=O)c(CNCCN6CCNC(=O)C6)cnc5c4)c3Cl)c2Cl)ccc1CNC[C@@H]1CCC(=O)N1 [Example 264, (S)-8-(2,2′-dichloro-3′-(6-methoxy-5-((((5-oxopyrrolidin-2-yl)methyl)-amino)-methyl)-pyridin-2-yl)-[1,1′-biphenyl]-3-yl)-3-(((2-(3-oxopiperazin-1-yl)ethyl)amino)methyl)-4H-pyrido[1,2-a]pyrimidin-4-one]	0.1
COC(=O)[C@H]1CCN(Cc2c(C)nc3cc(-c4cccc(-c5cccc(-c6ccc(CNC[C@@H]7CCC(=O)N7)c(OC)n6)c5Cl)c4Cl)ccn3c2=O)C1 [Example 265, (S)-Methyl 1-((8-(2,2′-dichloro-3′-(6-methoxy-5-(((((S)-5-oxopyrrolidin-2-yl)methyl)amino)methyl)pyridin-2-yl)-[1,1′-biphenyl]-3-yl)-2-methyl-4-oxo-4H-pyrido[1,2-a]pyrimidin-3-yl)methyl)pyrrolidine-3-carboxylate]	0.7
COc1nc(-c2cccc(-c3cccc(-c4ccn5c(=O)c(CNCCN6CCS(=O)(=O)CC6)cnc5c4)c3Cl)c2Cl)ccc1CNC[C@@H]1CCC(=O)N1 [Example 266, (S)-8-(2,2′-dichloro-3′-(6-methoxy-5-((((5-oxopyrrolidin-2-yl)methyl)-amino)methyl)-pyridin-2-yl)-[1,1′-biphenyl]-3-yl)-3-(((2-(1,1-dioxidothiomorpholino)-ethyl)-amino)-methyl)-4H-pyrido[1,2-a]pyrimidin-4-one]	17.2
COc1nc(-c2cccc(-c3cccc(-c4ccc5c(n4)OCCN(CCO)C5)c3Cl)c2Cl)ccc1CNC[C@@H]1CCC(=O)N1 [Example 267, (S)-5-((((6-(2,2′-Dichloro-3′-(4-(2-hydroxyethyl)-2,3,4,5-tetrahydropyrido[3,2-f][1,4]oxazepin-8-yl)-[1,1′-biphenyl]-3-yl)-2-methoxypyridin-3-yl)methyl)amino)methyl)pyrrolidin-2-one]	0.2
